Reference: US6288101A, “Imidazoles with serotonin receptor binding activity” (Virginia Commonwealth University, priority 1999, dated 2001)

Molecular target: T1, 5-HT1D -like receptor (Oryctolagus cuniculus, UniProt P49144)
T1 construct: Ring segments of the vein (4-5 mm in length) were cut and the endothelium gently removed; from tissue; host or cells: saphenous vein rings, endothelium removed, male New Zealand White rabbit
Experiment: 5-HT1D-like receptor agonist activity: contraction of the rabbit isolated saphenous vein
Design: species or system rabbit (New Zealand White)
Conditions: rabbit isolated saphenous vein rings, endothelium removed, 37° C., pH 7.4; prazosin, idazoxan and indomethacin (1 μM each) present; read-out: EC50 (concentration of the compound which causes 50% of the maximum contraction effected by it)
Protocol: The saphenous veins from both the left and right side were cleaned of fat and connective tissue and placed in Krebs solution (118 mM NaCl, 11 mM glucose, 25 mM NaHCO3, 4.7 mM KCl, 2.5 mM CaCl2.2H2 O, 1.2 mM KH2 PO4, and 1.2 mM MgSO4.7H2 O. Ring segments of the vein (4-5 mm in length) were cut and the endothelium gently removed. The segments were mounted in 10 mL baths containing Krebs buffer and were constantly aerated with 95% oxygen/5% carbon dioxide and maintained at 37° C. and pH 7.4 in order to record the isometric tension. A resting tension of 2.5 g was applied and the tissues allowed to equilibrate for 90 minutes, with washing every 15-20 minutes. After the equilibrium period, the rings were depolarized by the addition of two aliquots of KCl (80 mM final concentration) separated by a 20 minute washing period. The tissues were then exposed to prazosin, idazoxan and indomethacin (all 1 μM final concentration) for 30 minutes in order to exclude the actions of α1 - and α2 -adrenergic receptors and prostaglandin receptors respectively. […] Responses were calculated as a percentage of the maximal contraction evoked by 80 mM KCl. Only one compound was tested per preparation.
EC50 represents the concentration of the compound which causes 50% of the maximum contraction effected by it.

T1 sequence (P49144 whole entry): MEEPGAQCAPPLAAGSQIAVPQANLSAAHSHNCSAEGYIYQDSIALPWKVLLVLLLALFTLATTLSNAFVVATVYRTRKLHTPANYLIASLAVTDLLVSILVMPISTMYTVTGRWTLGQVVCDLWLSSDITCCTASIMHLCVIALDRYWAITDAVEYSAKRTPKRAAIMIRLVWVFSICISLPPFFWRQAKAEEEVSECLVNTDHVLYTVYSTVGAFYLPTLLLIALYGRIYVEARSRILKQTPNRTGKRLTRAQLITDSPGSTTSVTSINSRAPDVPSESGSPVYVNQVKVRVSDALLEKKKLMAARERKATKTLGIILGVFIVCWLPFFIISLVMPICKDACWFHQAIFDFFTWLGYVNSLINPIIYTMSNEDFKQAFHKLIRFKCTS

| SMILES | EC50 |
| --- | --- |
| Cc1cc(C(C)(C)C)cc(C)c1Cc1ncc[nH]1 | 0.13 µM |
| Cc1cc(Br)cc(C)c1Cc1ncc[nH]1 | 9.3 µM |
